For orientation: IC50 means the point on the concentration scale where inhibition reaches its midpoint.

In one assay the test system is C4-2 cells. Description: Cell-based killing assay of payloads (CellTiter-Glo), C4-2 cells. More on the design: species or system human. As to conditions: 5-day incubation; for IC50: Homo sapiens, C4-2, 120 h, average ± SD where replicates; for C4-2 % Kill: at maximum concentration tested (100 − % viable cells). The method, boiled down: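 Cells plated at 4000/well in line-specific complete medium, grown overnight, then exposed to 1:3 serial dilutions of payload (100 nM to […]) for 5 days. ATP-based CellTiter-Glo luminescence read; IC50 from four-parameter logistic 10-point fit, and % kill at top concentration as 100 − % viable.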

The next assay concerns T47D cells. Put plainly: Cell-based killing assay of payloads (CellTiter-Glo), T47D cells. More on the design: species or system human. The following applies: 5-day incubation; for IC50: Homo sapiens, T47D, 120 h; for T47D % Kill: at maximum concentration tested. Here is the method: (§1) To test the ability of the disclosed tubulysin payloads to kill human cell lines, an in vitro cytotoxicity assay was performed. In vitro cytotoxicity of the disclosed payloads, as well as reference compounds, were evaluated using the CellTiter-Glo Assay Kit (Promega, Cat #G7573), in which the quantity of ATP present is used to determine the number of viable cells in culture. For the assay, C4-2, HEK293, or T47D cells were seeded at 4000 cells/well on Nunclon white 96-well plates in complete growth medium (DME high glucose:Ham's F12 at 4:1, 10% FBS, 100 units/ml Penicillin, 100 ug/ml streptomycin, 53 ug/ml glutatmine, 10 ug/ml insulin, 220 ng/ml biotin, 12.5 pg/ml T3, 12.5 ug/ml Adenine, 4 ug/ml transferrin for C42 cells; DME high glucose, 10% FBS, 100 units/ml Penicillin, 100 ug/ml streptomycin, 53 ug/ml glutatmine for HEK293; RPMI, 10% FBS, 100 units/ml Penicillin, 100 ug/ml streptomycin, 53 ug/ml glutatmine, 10 ug/ml insulin, 10 mM HEPEs, 200 nM Sodium Pyruvate for T47D cells) and grown overnight at 37° C. in 5% CO2. For cell viability curves, 1:3 serially diluted payloads were added to the cells at final concentrations ranging from 100 nM to […], including a no treatment control group, and were then incubated for 5 days. After the 5-day incubation, cells were incubated at room temperature with 100 μL of CellTiter-Glo reagents for 10 minutes. Relative luminescence units (RLU) were determined on a Victor plate reader (PerkinElmer). The IC50 values were determined from a four-parameter logistic equation over a 10-point response curve (GraphPad Prism). All IC50 values are expressed in molar (M) concentration. The percent cell killing (% kill) at the maximum concentration tested was estimated from the following formula (100−% viable cells). Averages±standard deviation (SD) are included where replicate experiments were performed.
On the technique in general: Cellular ATP, detected with luciferase, serves as a proxy for viable cell number.

A further assay relates to HEK293 cells. Put plainly: Cell-based killing assay of payloads (CellTiter-Glo), HEK293 cells. Set-up: species or system human. As to conditions: 5-day incubation; for IC50: Homo sapiens, HEK293, 120 h; for HEK293 % Kill: at maximum concentration tested. Here is the method: as §1
Another assay has as its system HCT15 cells. Description: cells. As to conditions: HCT15 cells; for HCT-15 + verapamil % Kill / HCT-15 % Kill: maximum % cell killing. The assay is classed as cell-based, human. A digest of the protocol:
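HCT15 colorectal carcinoma cells, 1000 per well in RPMI/10% FBS, with or without 5 ug/mL verapamil, exposed to 1:3 serially diluted payloads for 5 days at 37 °C. Viability measured by CellTiter-Glo ATP luminescence; IC50 from four-parameter logistic fit of a 10-point curve, % kill at top concentration.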

Where [1] appears, read: with 5 ug/mL Verapamil, read-out: HCT-15 + verapamil IC50.
Setting [2] is: Homo sapiens, HCT-15, without Verapamil, read-out: HCT-15 IC50.

Where two headings read alike, the source gives them in different places. Some results are limits rather than exact numbers.

For `CC[C@H](C)[C@H](NC(=O)[C@H]1CCCCN1C)C(=O)N(CCCCc1c[nH]nn1)[C@H](C[C@@H](OC(C)=O)c1nc(C(=O)N[C@@H](Cc2ccc(N)cc2)CC(C)(C)C(=O)O)cs1)C(C)C` [IVj, (S)-4-(2-((1R,3R)-3-((2S,3S)—N-(4-(1H-1,2,3-triazol-5-yl)butyl)-3-methyl-2-((R)-1-methylpiperidine-2-carboxamido)pentanamido)-1-acetoxy-4-methylpentyl)thiazole-4-carboxamido)-5-(4-aminophenyl)-2,2-dimethylpentanoic acid], the half-maximal inhibitory concentration (IC50) with C4-2 cells turned out to be 7.16 nM; in the assay on T47D cells, 17.7 nM; in the assay with HEK293 cells, 17.6 nM; in the assay on HCT15 cells (setting [1]), 5.56 nM; in the assay on HCT15 cells (setting [2]), 7.8 nM. Besides, the “C4-2 % Kill” value in the assay with C4-2 cells is reported as 94.5%. For the same molecule, the “T47D % Kill” value in the assay with T47D cells turned out to be 79.9%. Besides, in the assay on HEK293 cells, the “HEK293 % Kill” value is 75.5%. Besides, in the assay on HCT15 cells (with 5 ug/mL Verapamil), the “HCT-15 + verapamil % Kill” value amounted to 98.4%. Moreover, in the assay with HCT15 cells (without Verapamil), the “HCT-15 % Kill” value was determined as 96.4%.

Turning to `CCCCCCON(C(=O)[C@@H](NC(=O)[C@H]1CCCCN1C)[C@@H](C)CC)[C@H](C[C@@H](OC(=O)NCC)c1nc(C(=O)N[C@@H](Cc2ccc(O)cc2)C[C@H](C)C(=O)O)cs1)C(C)C` [VIb, (2S,4R)-5-(4-hydroxyphenyl)-4-(2-((6R,8R)-8-isopropyl-9-((2S,3S)-3-methyl-2-((R)-1-methylpiperidine-2-carboxamido)pentanoyl)-4-oxo-5,10-dioxa-3,9-diazahexadecan-6-yl)thiazole-4-carboxamido)-2-methylpentanoic acid], the half-maximal inhibitory concentration (IC50) with C4-2 cells is 12 nM; in the assay with T47D cells, 13.6 nM; with HEK293 cells, 20.3 nM; in the assay with HCT15 cells (setting [1]), 2.88 nM; in the assay on HCT15 cells (setting [2]) it was above 50 nM. In addition, in the assay on C4-2 cells, the “C4-2 % Kill” value amounted to 96.5%. Further, the “T47D % Kill” value in the assay on T47D cells is recorded as 76.2%. The “HEK293 % Kill” value in the assay with HEK293 cells was 75.4%. The “HCT-15 + verapamil % Kill” value in the assay with HCT15 cells (with 5 ug/mL Verapamil) came to 97.8%. For the same molecule, the “HCT-15 % Kill” value with HCT15 cells (without Verapamil) is 54.7%.

Turning to `CCCCCCON(C(=O)[C@@H](NC(=O)[C@H]1CCCCN1C)[C@@H](C)CC)[C@H](C[C@@H](OC(=O)NCCCC)c1nc(C(=O)N[C@@H](Cc2ccc(O)cc2)C[C@H](C)C(=O)O)cs1)C(C)C` [VId, (2S,4R)-5-(4-Hydroxyphenyl)-4-(2-((8R,10R)-10-isopropyl-11-((2S,3S)-3-methyl-2-((R)-1-methylpiperidine-2-carboxamido)pentanoyl)-6-oxo-7,12-dioxa-5,11-diazaoctadecan-8-yl)thiazole-4-carboxamido)-2-methylpentanoic acid], the IC50 in the assay on C4-2 cells is 2.4 nM; in the assay with T47D cells it was 2.51 nM; in the assay with HEK293 cells it was 5.26 nM; in the assay with HCT15 cells (setting [1]), 0.482 nM; in the assay with HCT15 cells (setting [2]), above 30 nM. Also, in the assay with C4-2 cells, the “C4-2 % Kill” value is on record as 95.5 ± 2.6%. The “T47D % Kill” value with T47D cells was determined as 68.4%. In the assay on HEK293 cells, the “HEK293 % Kill” value was determined as 78.5%. Besides, the “HCT-15 + verapamil % Kill” value in the assay on HCT15 cells (with 5 ug/mL Verapamil) is given as 99%. Moreover, the “HCT-15 % Kill” value with HCT15 cells (without Verapamil) stood at 78.7%.

As for `CC[C@H](C)[C@H](NC(=O)[C@H]1CCCCN1C)C(=O)N(OCCCO)[C@H](C[C@@H](OC(C)=O)c1nc(C(=O)N[C@@H](Cc2ccc(O)cc2)C[C@H](C)C(=O)O)cs1)C(C)C` [Vk, (2S,4R)-4-(2-((1R,3R)-1-Acetoxy-3-((2S,3S)—N-(3-hydroxypropoxy)-3-methyl-2-((R)-1-methylpiperidine-2-carboxamido)pentanamido)-4-methylpentyl)thiazole-4-carboxamido)-5-(4-hydroxyphenyl)-2-methylpentanoic acid], the IC50 with T47D cells is above 100 nM; in the assay with HEK293 cells, above 100 nM; in the assay with HCT15 cells (setting [1]), 42.7 nM; with HCT15 cells (setting [2]) it was at least 100 nM. Besides, the “HCT-15 + verapamil % Kill” value in the assay with HCT15 cells (with 5 ug/mL Verapamil) worked out at 83%. Further, the “HCT-15 % Kill” value with HCT15 cells (without Verapamil) came to 41.5%.
